{"source": "patent US20210038515A1", "about": "(Azurity Pharmaceuticals, Inc., priority 2014, published 2021)", "key": {"[1]": {"assay": "Stability of vancomycin hydrochloride powder in bottle (HPLC or cylinder plate analysis)", "details": "for μg/mg vancomycin hydrochloride powder: Ex. 1, 10 g powder in HDPE bottle; for % Vancomycin B / % other impurities / % Monodechlorovancomycin: Ex. 1 powder in bottle; for Monodechlorovancomycin / Other Impurities / Vancomycin / Vancomycin B: Ex. 4, 15.38 g powder in bottle", "experimental": "Stability may be assessed by cylinder-plate assay (the cylinder plate assay depends on the diffusion of the antibiotic from a vertical cylinder through a solidified agar layer in a petri dish or plate. The growth of the specific microorganisms inoculated into the agar is prevented in a circular area or zone around the cylinder containing the solution of the antibiotic), HPLC or any other known testing method.\nThe stability of vancomycin hydrochloride powder was evaluated. […] At various time points the powder in the bottle was analyzed for vancomycin hydrochloride, vancomycin B, other impurities, and monodechlorovancomycin by HPLC or cylinder plate analysis.\nVancomycin hydrochloride was further investigated in stability studies. […] At each given time point, vancomycin hydrochloride, vancomycin B, other impurities, and monodechlorovancomycin were assayed by HPLC or total microbiological activity was assessed by cylinder plate analysis."}, "[2]": {"details": "289 mL solution component + 15.38 g powder, shaken 30 seconds"}, "[3]": {"details": "Ex. 4, 3 months accelerated and ambient"}}, "note": "Where a name gives a salt, the structure may show the parent alone."}
{"smiles": "CN[C@H](CC(C)C)C(=O)N[C@H]1C(=O)N[C@@H](CC(N)=O)C(=O)N[C@H]2C(=O)NC3C(=O)N[C@H](C(=O)N[C@H](C(=O)O)c4cc(O)cc(O)c4-c4cc3ccc4O)[C@H](O)c3ccc(c(Cl)c3)Oc3cc2cc(c3OC2OC(CO)C(O)C(O)C2OC2CC(C)(N)C(O)C(C)O2)Oc2ccc(cc2Cl)[C@H]1O", "note": "(some centres unmarked) [vancomycin hydrochloride powder, vancomycin hydrochloride]", "values": [{"measurement": "μg/mg vancomycin hydrochloride powder", "setting": "[1]; 40° C./75% RH, 0 months", "value": 1067, "unit": "µg/mg"}, {"measurement": "μg/mg vancomycin hydrochloride powder", "setting": "[1]; 40° C./75% RH, 1 month", "value": 1076, "unit": "µg/mg"}, {"measurement": "μg/mg vancomycin hydrochloride powder", "setting": "[1]; 40° C./75% RH, 2 months", "value": 1097, "unit": "µg/mg"}, {"measurement": "μg/mg vancomycin hydrochloride powder", "setting": "[1]; 40° C./75% RH, 3 months", "value": 1094, "unit": "µg/mg"}, {"measurement": "μg/mg vancomycin hydrochloride powder", "setting": "[1]; 40° C./75% RH, 6 months", "value": 1137, "unit": "µg/mg"}, {"measurement": "powder in bottle stability", "setting": "[1]; Ex. 1, ambient and accelerated conditions (25° C./60% RH and 40°/75% RH)", "value": "stable"}, {"measurement": "% Vancomycin B", "setting": "[1]; 25° C./60% (RH), 0 months", "value": 93.03, "unit": "%"}, {"measurement": "% other impurities", "setting": "[1]; 25° C./60% (RH), 0 months", "value": "<5.0", "unit": "% for all other"}, {"measurement": "% Vancomycin B", "setting": "[1]; 25° C./60% (RH), 3 months", "value": 92.19, "unit": "%"}, {"measurement": "% other impurities", "setting": "[1]; 25° C./60% (RH), 3 months", "value": "<5.0", "unit": "% for all other"}, {"measurement": "% Vancomycin B", "setting": "[1]; 25° C./60% (RH), 6 months", "value": 92.04, "unit": "%"}, {"measurement": "% other impurities", "setting": "[1]; 25° C./60% (RH), 6 months", "value": "<5.0", "unit": "% for all other"}, {"measurement": "% Vancomycin B", "setting": "[1]; 25° C./60% (RH), 9 months", "value": 89.34, "unit": "%"}, {"measurement": "% other impurities", "setting": "[1]; 25° C./60% (RH), 9 months", "value": "<5.0", "unit": "% for all other"}, {"measurement": "% Vancomycin B", "setting": "[1]; 25° C./60% (RH), 12 months", "value": 88.85, "unit": "%"}, {"measurement": "% other impurities", "setting": "[1]; 25° C./60% (RH), 12 months", "value": "<5.0", "unit": "% for all other"}, {"measurement": "% Vancomycin B", "setting": "[1]; 25° C./60% (RH), 18 months", "value": 90.8, "unit": "%"}, {"measurement": "% other impurities", "setting": "[1]; 25° C./60% (RH), 18 months", "value": "<5.0", "unit": "% for all other"}, {"measurement": "% Vancomycin B", "setting": "[1]; 40° C./75% RH, 0 months", "value": 93.03, "unit": "%"}, {"measurement": "% other impurities", "setting": "[1]; 40° C./75% RH, 0 months", "value": "<5.0", "unit": "% for all other"}, {"measurement": "% Monodechlorovancomycin", "setting": "[1]; 40° C./75% RH, 1 month", "value": 1.0, "unit": "%"}, {"measurement": "% Vancomycin B", "setting": "[1]; 40° C./75% RH, 1 month", "value": 91.87, "unit": "%"}, {"measurement": "% other impurities", "setting": "[1]; 40° C./75% RH, 1 month", "value": "<5.0", "unit": "% for all other"}, {"measurement": "% Monodechlorovancomycin", "setting": "[1]; 40° C./75% RH, 2 months", "value": 1.3, "unit": "%"}, {"measurement": "% Vancomycin B", "setting": "[1]; 40° C./75% RH, 2 months", "value": 89.14, "unit": "%"}, {"measurement": "% other impurities", "setting": "[1]; 40° C./75% RH, 2 months", "value": "<5.0", "unit": "% for all other"}, {"measurement": "% Monodechlorovancomycin", "setting": "[1]; 40° C./75% RH, 3 months", "value": 1.6, "unit": "%"}, {"measurement": "% Vancomycin B", "setting": "[1]; 40° C./75% RH, 3 months", "value": 88.22, "unit": "%"}, {"measurement": "% other impurities", "setting": "[1]; 40° C./75% RH, 3 months", "value": "<5.0", "unit": "% for all other"}, {"measurement": "% Vancomycin B", "setting": "[1]; 40° C./75% RH, 6 months", "value": 81.84, "unit": "%"}, {"measurement": "% other impurities", "setting": "[1]; 40° C./75% RH, 6 months", "value": "<5.0", "unit": "% for all other"}, {"measurement": "Monodechlorovancomycin", "setting": "[1]; 25° C./60% RH, 0 months", "value": 1.5, "unit": "%"}, {"measurement": "Other Impurities", "setting": "[1]; 25° C./60% RH, 0 months", "value": "<5.0", "unit": "% for"}, {"measurement": "Vancomycin", "setting": "[1]; 25° C./60% RH, 0 months", "value": "1,112 mcg/mg"}, {"measurement": "Vancomycin B", "setting": "[1]; 25° C./60% RH, 0 months", "value": 94.7, "unit": "%"}, {"measurement": "Monodechlorovancomycin", "setting": "[1]; 25° C./60% RH, 3 months", "value": 1.1, "unit": "%"}, {"measurement": "Other Impurities", "setting": "[1]; 25° C./60% RH, 3 months", "value": "<5.0", "unit": "% for"}, {"measurement": "Vancomycin", "setting": "[1]; 25° C./60% RH, 3 months", "value": "1,070 mcg/mg"}, {"measurement": "Vancomycin B", "setting": "[1]; 25° C./60% RH, 3 months", "value": 91.8, "unit": "%"}, {"measurement": "Monodechlorovancomycin", "setting": "[1]; 40° C./60% RH, 0 months", "value": 1.5, "unit": "%"}, {"measurement": "Other Impurities", "setting": "[1]; 40° C./60% RH, 0 months", "value": "<5.0", "unit": "% for all"}, {"measurement": "Vancomycin", "setting": "[1]; 40° C./60% RH, 0 months", "value": "1,112 mcg/mg"}, {"measurement": "Vancomycin B", "setting": "[1]; 40° C./60% RH, 0 months", "value": 94.7, "unit": "%"}, {"measurement": "Monodechlorovancomycin", "setting": "[1]; 40° C./60% RH, 1 month", "value": 1.4, "unit": "%"}, {"measurement": "Other Impurities", "setting": "[1]; 40° C./60% RH, 1 month", "value": "<5.0", "unit": "% for all"}, {"measurement": "Vancomycin", "setting": "[1]; 40° C./60% RH, 1 month", "value": "1,095 mcg/mg"}, {"measurement": "Vancomycin B", "setting": "[1]; 40° C./60% RH, 1 month", "value": 91.3, "unit": "%"}, {"measurement": "Monodechlorovancomycin", "setting": "[1]; 40° C./60% RH, 2 months", "value": 1.1, "unit": "%"}, {"measurement": "Other Impurities", "setting": "[1]; 40° C./60% RH, 2 months", "value": "<5.0", "unit": "% for all"}, {"measurement": "Vancomycin", "setting": "[1]; 40° C./60% RH, 2 months", "value": "1,108 mcg/mg"}, {"measurement": "Vancomycin B", "setting": "[1]; 40° C./60% RH, 2 months", "value": 90.8, "unit": "%"}, {"measurement": "Monodechlorovancomycin", "setting": "[1]; 40° C./60% RH, 3 months", "value": 1.0, "unit": "%"}, {"measurement": "Other Impurities", "setting": "[1]; 40° C./60% RH, 3 months", "value": "<5.0", "unit": "% for all"}, {"measurement": "Vancomycin", "setting": "[1]; 40° C./60% RH, 3 months", "value": "1,095 mcg/mg"}, {"measurement": "Vancomycin B", "setting": "[1]; 40° C./60% RH, 3 months", "value": 87.6, "unit": "%"}, {"measurement": "Monodechlorovancomycin, not exceeded", "setting": "[1]; [3]", "value": "≤ 4.7", "unit": "%"}, {"measurement": "other impurities, not exceeded", "setting": "[1]; [3]", "value": "≤ 5.0", "unit": "%"}, {"measurement": "powder stability", "setting": "[1]; Ex. 4, accelerated and ambient (25±2° C./60±5% RH) conditions", "value": "remained stable through 3 months under accelerated stability conditions and 3 months under ambient"}, {"measurement": "dissolution of powder in the solution component", "setting": "[2]", "value": "easily dissolves in the solution component"}]}
